Assay results: patent publication US20100144818A1, “1-BENZYLPYRAZOLE DERIVATIVES, PREPARATION THEREOF AND THERAPEUTIC USE THEREOF” (SANOFI-AVENTIS, priority 2007, published 2010)

Tests used:
[1] = Model of passage through the intestinal barrier constituted of Caco-2 cells; format: in vitro ADME; details: human, concentration=20 μM, apical pH=6.5 and basal pH=7.4, read-out: Ptot, coefficient of apparent permeability for the monolayer of intestinal epithelial cells plus filter
Source text: The compounds according to the invention were investigated on a model of passage through the intestinal barrier constituted of Caco-2 cells. (M. C. Grès, Pharm. Res., 1998, 15(5), 726-733). This model makes it possible to define the coefficient Ptot of apparent permeability of the product for the monolayer of intestinal epithelial cells plus filter. As examples, compounds No. 60 (ex. 5) and No. 90 (ex. 7) have, in this model, a Ptot of 111.97 and 64.5 respectively (10^−7 cm·s^−1; concentration=20 μM; apical pH=6.5 and basal pH=7.4). These values are predictive of total absorption in humans, after administration by the oral route.

Row | Structure (SMILES) | melting point [°C] | Papp at 20 μM [1] [×10⁻⁶ cm/s]
1 | Cc1ccc(Cn2nc(CNC(=O)NC(C)(C)C)cc2-c2ccc(Cl)c(Cl)c2)cc1Cl [Compound 81, N-(tert-Butyl)-N′-((1-(3-chloro-4-methylbenzyl)-5-(3,4-dichlorophenyl)-1H-pyrazol-3-yl)methyl)urea] | 181 | –
2 | CC(C)(C)C(=O)NCc1cc(-c2ccc(Cl)c(Cl)c2)n(Cc2ccc(Cl)c(Cl)c2)n1 [Compound 60, N-((1-(3,4-Dichlorobenzyl)-5-(3,4-dichlorophenyl)-1H-pyrazol-3-yl)methyl)-2,2-dimethylpropanamide] | – | 11.2
3 | CC(C)(C)S(=O)(=O)NCc1cc(-c2ccc(Cl)c(Cl)c2)n(Cc2ccc(Cl)c(Cl)c2)n1 [Compound 90, N-((1-(3,4-Dichlorobenzyl)-5-(3,4-dichlorophenyl)-1H-pyrazol-3-yl)methyl)-2-methylpropane-2-sulfonamide] | 127 | 6.45
